Test systems include DMS 114 small cell lung; MDA-N; TK-10 renal; EKVX NSCLC; SF-295 CNS; LXFL 529 NSCLC; SW-620 colon; M19-MEL melanoma; NCI-H226 lung; XF 498 CNS; DLD-1 colon; OVCAR-8 ovarian; UACC-257 melanoma.
Common to all, as to test: growth of human tumour cells (NCI), 48 h

Molecules are shown by their SMILES.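 Following 48 hours of exposure in 96-well plates, responses at five concentrations were used to interpolate endpoints linearly. TGI: concentration producing complete growth inhibition.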 Where a SMILES comes first, the peptide text is derived from it.

Take `COC1CC(CC2CCC(C)C(C(C)C(=O)O)O2)OC2(OC(C)(C3CCC(C)(C4OC(C5OC(O)(CO)C(C)CC5C)CC4C)O3)CC2C)C1C` (stereo not drawn): the TGI with DMS 114 small cell lung turned out to be 1.03 µM; in the experiment on MDA-N, 4.99 µM; in the experiment on TK-10 renal, 36.8 µM; in the experiment on EKVX NSCLC, 49.2 µM; with SF-295 CNS it was 11.6 µM; with LXFL 529 NSCLC, 4.02 µM. The TGI came to 17.9 µM in the experiment on SW-620 colon; 2.18 µM in the experiment on M19-MEL melanoma; 21.3 µM in the experiment with NCI-H226 lung; 1.01 µM with XF 498 CNS; 14.1 µM in the experiment with DLD-1 colon; 41.3 µM in the experiment with OVCAR-8 ovarian. The TGI in the experiment with UACC-257 melanoma stood at 4.07 µM.

Take `COc1ccc(C2c3cc4c(cc3OC(O)(CO)C2C(=O)O)OCO4)cc1` (stereo not drawn) (tested in a mixture with another compound): the TGI in the experiment on DMS 114 small cell lung is 61.3 µM; with TK-10 renal, more than 100 µM; in the experiment on EKVX NSCLC, 88 µM; in the experiment with SF-295 CNS, 57.3 µM; in the experiment with LXFL 529 NSCLC it was 31.1 µM; in the experiment on SW-620 colon, 37.6 µM. Moreover, the TGI was determined as 21.3 µM in the experiment with M19-MEL melanoma; 47.7 µM in the experiment with NCI-H226 lung; 16.6 µM in the experiment with XF 498 CNS; 54.9 µM in the experiment with DLD-1 colon; 48.5 µM in the experiment with OVCAR-8 ovarian; 50.8 µM in the experiment on UACC-257 melanoma.

For the molecule `CC(=O)Oc1ccc(CO)cc1OC(C)=O`, the TGI in the experiment with DMS 114 small cell lung, with TK-10 renal, with EKVX NSCLC, in the experiment with SF-295 CNS, in the experiment with LXFL 529 NSCLC and with SW-620 colon was more than 100 µM each time. The TGI in the experiment on M19-MEL melanoma, in the experiment with NCI-H226 lung, in the experiment on XF 498 CNS, in the experiment on DLD-1 colon, in the experiment on OVCAR-8 ovarian and in the experiment with UACC-257 melanoma was more than 100 µM each time.

`CCOC(=O)C(=O)NCCCN1CCOCC1`: the TGI in the experiment on DMS 114 small cell lung, in the experiment on TK-10 renal, in the experiment on EKVX NSCLC, in the experiment on SF-295 CNS, in the experiment with LXFL 529 NSCLC and in the experiment with SW-620 colon was more than 100 µM in each case. Besides, the TGI with M19-MEL melanoma, with NCI-H226 lung, in the experiment with XF 498 CNS, in the experiment on DLD-1 colon, in the experiment with OVCAR-8 ovarian and in the experiment with UACC-257 melanoma was more than 100 µM in each case.

For `Cc1cc(=O)[nH]c(/N=C(\N)Nc2ccc(Cl)cc2)n1`, the TGI in the experiment with MDA-N, with TK-10 renal, in the experiment with EKVX NSCLC, with SF-295 CNS, in the experiment with SW-620 colon and with NCI-H226 lung was more than 100 µM each time. The TGI in the experiment on OVCAR-8 ovarian and with UACC-257 melanoma was more than 100 µM throughout.

In the case of `O=C1c2ccccc2C(C2c3ccccc3C(=O)c3cc(Br)ccc32)c2ccc(Br)cc21` (stereo not drawn), the TGI in the experiment with MDA-N, with TK-10 renal, in the experiment with EKVX NSCLC, in the experiment with SF-295 CNS, in the experiment on SW-620 colon and with NCI-H226 lung was more than 100 µM each time. The TGI in the experiment with OVCAR-8 ovarian and in the experiment on UACC-257 melanoma was more than 100 µM throughout.

For the molecule `CCC(C)C(NC(=O)C1CCCN1C(=O)C(CC(C)C)NC(=O)C(CC(C)C)NC(=O)C(N)CC(C)C)C(=O)NC(C(=O)NCC(=O)NC(CC(N)=O)C(=O)NC(CC(C)C)C(=O)NC(CC(C)C)C(=O)NC(CC(C)C)C(N)=O)C(C)C` (stereo not drawn) (H-LLLPIVGNLLL-NH2; configuration not given here), the TGI in the experiment on MDA-N, in the experiment on TK-10 renal, in the experiment on EKVX NSCLC, in the experiment on SF-295 CNS, in the experiment on SW-620 colon and in the experiment on NCI-H226 lung was more than 50 µM throughout. The TGI in the experiment with OVCAR-8 ovarian and in the experiment with UACC-257 melanoma was more than 50 µM throughout.
